Some test systems named below: 786-0 renal; A498 renal; HL-60(TB) leukemia; MALME-3M melanoma; RPMI-8226 leukemia; SK-MEL-28 melanoma; SK-MEL-5 melanoma; SR leukemia; TK-10 renal; UO-31 renal.
What all share (test): NCI tumour cell line growth inhibition, 48 h

Several values for one entry are separate records, joined by “and”; a condition that tells them apart may be missing. Equal entries are not always repeated.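 Test compounds were applied to cells in 96-well plates for 48 hours at 5 doses. GI50 = concentration required for 50% inhibition of growth. TGI: total growth inhibition.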

For `FC(F)(F)c1ccc(-c2cnc(-c3nn[nH]n3)nc2NC2CCCCCC2)cc1`, the GI50 with 786-0 renal, in the assay on A498 renal, in the assay with HL-60(TB) leukemia, in the assay with MALME-3M melanoma, in the assay with RPMI-8226 leukemia and with SK-MEL-28 melanoma was more than 10 µM each time. In addition, the GI50 in the assay with SK-MEL-5 melanoma, in the assay on SR leukemia, in the assay with TK-10 renal and in the assay on UO-31 renal was more than 10 µM throughout. The TGI with 786-0 renal, with A498 renal, with HL-60(TB) leukemia, in the assay on MALME-3M melanoma, in the assay with RPMI-8226 leukemia and in the assay with SK-MEL-28 melanoma was more than 10 µM throughout. The TGI in the assay with SK-MEL-5 melanoma, with SR leukemia, with TK-10 renal and in the assay on UO-31 renal was more than 10 µM each time.
Turning to `C/C=C/C(C/C=C(\C)CO[Si](C)(C)C(C)(C)C)O[Si](C)(C)C(C)(C)C` (stereo not given), the TGI with 786-0 renal, in the assay on A498 renal, with HL-60(TB) leukemia, with MALME-3M melanoma, in the assay on RPMI-8226 leukemia and in the assay on SK-MEL-28 melanoma was more than 100 µM each time. For the same molecule, the TGI in the assay on SK-MEL-5 melanoma, in the assay with SR leukemia, in the assay on TK-10 renal and in the assay on UO-31 renal was more than 100 µM each time.
On to `c1c[nH]c(CN2CCN(Cc3ncc[nH]3)CC2)n1`, for which the TGI in the assay with 786-0 renal, in the assay on A498 renal, in the assay on HL-60(TB) leukemia, with MALME-3M melanoma, with RPMI-8226 leukemia and in the assay with SK-MEL-28 melanoma was more than 100 µM each time. The TGI with SK-MEL-5 melanoma, in the assay with SR leukemia, in the assay with TK-10 renal and in the assay with UO-31 renal was more than 100 µM in each case.
Consider `CNC(=S)N/N=C/CSC/C=N/NC(=S)NC`, for which the GI50 is more than 100 µM in the assay with 786-0 renal; more than 100 µM in the assay with A498 renal; more than 62.3 µM in the assay with HL-60(TB) leukemia; more than 100 µM in the assay on MALME-3M melanoma; more than 100 µM in the assay with RPMI-8226 leukemia; more than 100 µM in the assay on SK-MEL-28 melanoma. Moreover, the GI50 in the assay on SK-MEL-5 melanoma was more than 100 µM; in the assay with SR leukemia it was 0.799 µM; with TK-10 renal, more than 100 µM; in the assay on UO-31 renal, more than 100 µM. The TGI in the assay on 786-0 renal, in the assay on A498 renal, in the assay with HL-60(TB) leukemia, in the assay with MALME-3M melanoma, in the assay with RPMI-8226 leukemia and with SK-MEL-28 melanoma was more than 100 µM in each case. For the same molecule, the TGI with SK-MEL-5 melanoma, with SR leukemia, in the assay on TK-10 renal and with UO-31 renal was more than 100 µM throughout.
In the case of `CCC[CH2][Sn]1([CH2]CCC)[O]C(=O)c2cccnc2[S]1`, the GI50 with 786-0 renal is 2.55 µM; in the assay with A498 renal it was 2.37 µM; with HL-60(TB) leukemia, 1.42 µM; with MALME-3M melanoma it was 1.49 µM; in the assay on RPMI-8226 leukemia it was 1.48 µM; in the assay with SK-MEL-28 melanoma it was 2.7 µM. The GI50 is 4.96 µM in the assay on SK-MEL-5 melanoma, 1.4 µM in the assay on SR leukemia, 3.71 µM in the assay on TK-10 renal and 8.59 µM with UO-31 renal. For the same molecule, the TGI with 786-0 renal amounted to 6.8 µM; in the assay on A498 renal, 5.3 µM; with HL-60(TB) leukemia, 3.31 µM; with MALME-3M melanoma, 4.31 µM; in the assay on RPMI-8226 leukemia it was 5.29 µM; in the assay with SK-MEL-28 melanoma, 10.6 µM. The TGI with SK-MEL-5 melanoma amounted to 17 µM; with SR leukemia, 5.65 µM; with TK-10 renal, 12.1 µM; in the assay with UO-31 renal it was 20.9 µM.
Turning to `CCn1nc(C#Cc2c(C)ccc3c(Nc4ccc(Cl)cc4)nccc23)c2c(N)ncnc21`, the GI50 is 3.66 µM in the assay on 786-0 renal; 2.54 µM in the assay with A498 renal; 0.598 µM in the assay with HL-60(TB) leukemia; 2.1 µM with MALME-3M melanoma; 3.77 µM in the assay with RPMI-8226 leukemia; 3.36 µM with SK-MEL-28 melanoma. Also, the GI50 was 2.14 µM in the assay with SK-MEL-5 melanoma, 1.01 µM in the assay with SR leukemia, 6.39 µM in the assay on TK-10 renal and 2.09 µM in the assay with UO-31 renal. Also, the TGI in the assay with 786-0 renal was more than 100 µM; in the assay on A498 renal, 8.65 µM; in the assay on HL-60(TB) leukemia it was more than 100 µM; with MALME-3M melanoma, 7.09 µM; with RPMI-8226 leukemia, more than 100 µM; with SK-MEL-28 melanoma it was more than 100 µM. The TGI in the assay with SK-MEL-5 melanoma is 6.55 µM; in the assay on SR leukemia it was more than 100 µM; in the assay on TK-10 renal, more than 100 µM; with UO-31 renal it was more than 100 µM.
Turning to `Nc1nc(N)c2nc(CNc3ccc(C(=O)NC(CCC(=O)O)C(=O)O)cc3)cnc2n1` (stereo not given), the GI50 was less than 0.01 µM in the assay on 786-0 renal; 0.062 µM and 0.0488 µM in the assay on A498 renal; less than 0.01 µM in the assay on HL-60(TB) leukemia; 0.921 µM in the assay on MALME-3M melanoma; 0.0519 µM and 0.0313 µM in the assay on RPMI-8226 leukemia; 0.941 µM with SK-MEL-28 melanoma. For the same molecule, the GI50 in the assay on SK-MEL-5 melanoma is 0.0585 µM and 0.0309 µM; with SR leukemia, less than 0.01 µM; in the assay on TK-10 renal, 0.0736 µM; with UO-31 renal, 0.0262 µM and < 0.01 µM. Also, the TGI in the assay on 786-0 renal, with A498 renal, with HL-60(TB) leukemia, with MALME-3M melanoma, in the assay with RPMI-8226 leukemia and in the assay with SK-MEL-28 melanoma was more than 100 µM each time. Also, the TGI with SK-MEL-5 melanoma, in the assay with SR leukemia, with TK-10 renal and in the assay with UO-31 renal was more than 100 µM throughout.
Consider `CCCN1CCCC(c2ccc(Nc3nc(Nc4cc(F)ccc4C(N)=O)c4cc[nH]c4n3)c(OC)c2)C1` (stereo not given), for which the GI50 was 2.84 µM in the assay with 786-0 renal; 0.779 µM in the assay with A498 renal; 0.0156 µM in the assay on HL-60(TB) leukemia; 2.69 µM with MALME-3M melanoma; 3.65 µM in the assay on RPMI-8226 leukemia; 3.49 µM in the assay with SK-MEL-28 melanoma. Also, the GI50 is 3.03 µM in the assay on SK-MEL-5 melanoma, 0.0112 µM in the assay with SR leukemia, 0.622 µM in the assay with TK-10 renal and 1.27 µM in the assay on UO-31 renal. Moreover, the TGI in the assay with 786-0 renal worked out at 6.29 µM; with A498 renal, 4.34 µM; with HL-60(TB) leukemia, 4.82 µM; in the assay with MALME-3M melanoma, 6.34 µM; in the assay on RPMI-8226 leukemia it was 10.8 µM; in the assay on SK-MEL-28 melanoma, 6.93 µM. The TGI in the assay with SK-MEL-5 melanoma turned out to be 6.24 µM; in the assay on SR leukemia, 7.99 µM; in the assay on TK-10 renal it was 4.39 µM; in the assay with UO-31 renal, 5.88 µM.

Source of the values: PubChem BioAssay (NCI).
